From ChEMBL document CHEMBL1122678, “Structural correlations of choline acetyltransferase inhibitors: trans-N-(carboxymethyl)-4-(beta-1-naphthylvinyl)pyridinium bromide and cis-N-(2-aminoethyl)-4-(beta-1-naphthylvinyl)-3-methylpyridinium bromide hydrobromide” (J Med Chem, 1984)

Columns and labels:
[1] = (§1) Inhibitory activity was determined; conditions: read-out: I50
[2] = as §1

IC50 [1]	I23 [2]	Compound
25 µM		C(=C\c1cccc2ccccc12)/c1ccncc1
50 µM		C(=C\c1cccc2ccccc12)/c1ccncc1 (stereo in doubt; cis) [listing 1 of 2 here]
	400 µM	C(=C\c1cccc2ccccc12)/c1ccncc1 (stereo in doubt; cis) [listing 2 of 2 here]
5 µM		C(=C\c1cccc2ccccc12)/c1ccncc1 (stereo in doubt; trans)
